Reference: patent US10947263B2, “Cyclic dinucleotides as anticancer agents” (BRISTOL-MYERS SQUIBB COMPANY, priority 2017, dated 2021)
Read-outs that look alike come from different tables or passages of the source.

Assays:
[1] = biological target: T1, STING WT (His-TVMV-S-hSTING(155-341)-H232R) (Homo sapiens, UniProt Q86WV6, H232R); assay: STING HTRF binding assay (time resolved FRET competition), STING WT; conditions: 20 nM His-tagged STING WT cytoplasmic domain, 200 nM fluorescein-labeled cGAMP analog probe, one hour; read-out: HTRF Binding Assays IC50 WT
T1 construct: STING WT: His-TVMV-S-hSTING(155-341)-H232R
T1 sequence (Q86WV6 with tags, fused parts or gaps H232R): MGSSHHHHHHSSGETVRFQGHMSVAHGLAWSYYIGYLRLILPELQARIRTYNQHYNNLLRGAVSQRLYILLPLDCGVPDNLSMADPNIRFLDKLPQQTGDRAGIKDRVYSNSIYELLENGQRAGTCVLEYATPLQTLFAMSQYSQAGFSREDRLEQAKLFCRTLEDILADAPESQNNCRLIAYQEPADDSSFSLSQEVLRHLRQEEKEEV
Description: (§1) A time resolved FRET-based competition binding assay was used to assess test article binding to STING WT and STING AQ. His-tagged STING cytoplasmic domain (WT or AQ) at a concentration of 20 nM was incubated with 2.5 nM Tb-labeled anti-His antibody, test compound, and fluorescein-labeled cGAMP analog probe (BioLog cat. no. C195) at a concentration of 200 nM (STING WT) or 40 nM (STING AQ) in PBS containing 0.005% Tween-20 and 0.1% BSA for one hour. Fluorescence at 495 nm and 520 nm was measured using an EnVision microplate reader to quantify FRET between Tb-labeled anti-His antibody and fluorescein-labeled probe. Background was defined as the signal obtained in the absence of STING protein, and background subtracted FRET ratios were normalized to the maximum signal obtained in the absence of test compound. These values were converted to a percent inhibition. Percent inhibition was determined for test compounds at 11 concentrations. The IC50, defined as the concentration of competing test compound needed to reduce specific binding of the probe by 50%, was calculated using the 4 parameter logistic equation to fit the data
STING WT: His-TVMV-S-hSTING(155-341)-H232R • […] […] […] […] LRQEEKEEV (SEQ ID NO:1)

[2] = tested on: STING / NF-κB pathway in THP1-Dual cells; assay: STING THP1 Reporter Assay, NF-κB pathway (SEAP, QUANTI-Blue); format: cell-based; conditions: 10% human plasma, 100% activation = 100 μM cGAMP, SEAP readout, read-out: THP1 Reporter Assays EC50 NFkB
Description: (§2) THP1-Dual™ cells were derived from the human THP-1 monocyte cell line by stable integration of two inducible reporter constructs. To this end, THP1-Dual™ cells allow the simultaneous study of the […], by monitoring the activity of SEAP, and the IRF pathway by assessing the activity of a secreted luciferase (Lucia). Both reporter proteins are readily measurable in the cell culture supernatant when using QUANTI-Blue™, a SEAP detection reagent, and QUANTI-Luc™, a luciferase detection reagent.
(§3) THP1-Dual™ cells induce the activation of NF-κB in response to STING agonists. They also trigger the IRF pathway upon stimulation with STING agonists, such as cGAMP. Here, the THP-1-Dual cells were used to assess STING binders for function on the cellular level.
(§4) Serial dilutions of compounds in DMSO were added to low volume 384 well plates at 100 nl/well using an ECHO acoustic dispenser (Labcyte, model 550) to achieve final starting concentration of 100 μM in cell suspension. THP-1 Dual™ STING reporter cells (Invivogen, Dual cells cat #THPD-nfis) were added to the plates with compounds at 15,000 cells in 10 μL per well in RPMI media (Gibco, cat #11875) containing 10% human plasma in a low volume 384-well black wall clear bottom tissue culture plate (Corning, cat #3542) for SEAP assay and low volume solid white plate (Corning, cat #3826) for luciferase assay. One column of the plate was reserved for treatment with cGAMP at 100 μM for 100% activation calculation and one column for no treatment (DMSO only) for baseline activation. Plates were then incubated in 37 OC incubator at 5% CO2 for 20 hours.
(§5) In the SEAP assay, […] 2× QuantiBlue (Invivogen, cat #Rep-qb2) is added to 384 well black plates seeded with THP1 cells and incubated at 37° C. for 2 hours. Plates were read on the Envision (Perkin Elmer) at 620 nm wavelength (OD620). In the luciferase assay, 5 μl of Quantiluc (Invivogen, Rep-qlc2) is added to white 384 well plates seeded with THP1 cells and read at 5 minutes on the Envision (Perkin Elmer) using a luminescence protocol (RLU). For both cell lines, 100% activation was determined by value (RLU) of THP-1 Dual STING cells stimulated with 100 μM cGAMP (Invivogen, cat #TLRL-NACGA23-5).

[3] = tested on: STING / IRF pathway in THP1-Dual cells; assay: STING THP1 Reporter Assay, IRF pathway (secreted Lucia luciferase, QUANTI-Luc); format: cell-based; conditions: 10% human plasma, 100% activation = 100 μM cGAMP, luciferase readout, read-out: THP1 Reporter Assays EC50 IRF3
Description: as §2, §3, §4, §5

[4] = biological target: T2, STING AQ (His-TVMV-S-hSTING(155-341)-G230A-R293Q) (Homo sapiens, UniProt Q86WV6, G230A/H232R/R293Q); assay: STING HTRF binding assay (time resolved FRET competition), STING AQ; conditions: 20 nM His-tagged STING AQ cytoplasmic domain, 40 nM fluorescein-labeled cGAMP analog probe, one hour; read-out: HTRF Binding Assays IC50 AQ
T2 construct: STING AQ: His-TVMV-S-hSTING(155-341)-G230A-R293Q
T2 sequence (Q86WV6 with tags, fused parts or gaps G230A/H232R/R293Q): as the sequence (Q86WV6 with tags, fused parts or gaps H232R) above, with G99A, R162Q counted along it
Description: as §1
STING AQ: His-TVMV-S-hSTING(155-341)-G230A-R293Q • […] […] […] […] LRQEEKEEV (SEQ ID NO:2)

IC50 [1] [nM] | EC50 ([2]; 20 hours) [µM] | EC50 ([3]; 20 hours) [nM] | IC50 [4] [nM] | EC50 ([2]; Homo sapiens, THP1-Dual, 20 h) [µM] | EC50 ([3]; Homo sapiens, THP1-Dual, 20 h) [nM] | SMILES
10 | 1.7 | 700 | 2 | – | – | NC(=O)c1cccc2c1nnn2[C@@H]1O[C@@H]2COP(=O)(O)O[C@H]3[C@@H](F)[C@H](n4cnc5c(N)ncnc54)O[C@@H]3COP(=O)(S)O[C@@H]1[C@@H]2O (single isomer, unassigned) [Example 4-2]
50 | 9.7 | 4000 | 10 | – | – | Nc1ncnc2c1ncn2[C@@H]1O[C@@H]2COP(=O)(S)O[C@@H]3[C@H](F)[C@@H](COP(=O)(S)O[C@H]2[C@H]1F)O[C@H]3n1nnc2c([N+](=O)[O-])cccc21 (single isomer, unassigned) [Example 11-3]
– | 13 | 5600 | 10 | – | – | Nc1ncnc2c1ncn2[C@@H]1O[C@@H]2COP(=O)(S)O[C@@H]3[C@H](O)[C@@H](COP(=O)(O)O[C@H]2[C@H]1F)O[C@H]3n1nnc2c([N+](=O)[O-])cccc21 (single isomer, unassigned) [Example 5-2]
10 | – | – | 10 | 7.6 | 3500 | Nc1ncnc2c1ncn2[C@@H]1O[C@@H]2COP(=O)(S)O[C@@H]3[C@H](O)[C@@H](COP(=O)(O)O[C@H]2[C@H]1F)O[C@H]3n1nnc2c([N+](=O)[O-])cccc21 (single isomer, unassigned) [Example 5-1]
160 | – | – | 5 | 80 | 53000 | Nc1ncnc2c1ncn2[C@@H]1O[C@@H]2COP(=O)(O)O[C@@H]3[C@H](O)[C@@H](COP(=O)(O)O[C@H]2[C@H]1O)O[C@H]3n1nnc2c([N+](=O)[O-])cccc21 [Example 2, (1R,6R,8R,9R,10S,15R,17R, 18R)-8-(6-amino-9H-purin-9-yl)-3,9,12,18-tetrahydroxy-17-(4-nitro-1H-1,2,3-benzo-triazol-1-yl)-2,4,7,11,13,16-hexaoxa-3λ^5,12λ^5-diphospha-tricyclo[13.2.1.0^6,^10]octa-decane-3,12-dione]
4660 | – | – | 650 | > 100 | > 100000 | Nc1ncnc2c1ncn2[C@@H]1O[C@@H]2COP(=O)(O)O[C@@H]3[C@H](O)[C@@H](COP(=O)(S)O[C@H]2[C@H]1F)O[C@H]3n1nnc2c([N+](=O)[O-])cccc21 (stereo partly drawn) [Example 19-1, (1R,6R,8R,9R,10R,15R,17R, 18R)-8-(6-amino-9H-purin-9-yl)-9-fluoro-3,12,18-trihydroxy-17-(4-nitro-1H-1,2,3-benzotriazol-1-yl)-12-sulfanylidene-2,4,7,11,13, 16-hexaoxa-3λ^5,12λ^5-diphos-phatricyclo[13.2.1.0^6,10]octa-decan-3-one]

The remaining lines, values behind:

SMILES | IC50 [1] [nM] | EC50 ([2]; 20 hours) [µM] | EC50 ([3]; 20 hours) [nM] | IC50 [4] [nM] | EC50 ([2]; Homo sapiens, THP1-Dual, 20 h) [µM] | EC50 ([3]; Homo sapiens, THP1-Dual, 20 h) [nM]
NC(=O)c1cccc2c1nnn2[C@@H]1O[C@@H]2COP(=O)(S)O[C@H]3[C@@H](F)[C@H](n4cnc5c(N)ncnc54)O[C@@H]3COP(=O)(S)O[C@@H]1[C@@H]2F (single isomer, unassigned) [Example 10-4] | 10 | 0.9 | 300 | 2 | – | –
Nc1ncnc2c1ncn2[C@@H]1O[C@@H]2COP(=O)(S)O[C@@H]3[C@H](O)[C@@H](COP(=O)(S)O[C@H]2[C@H]1F)O[C@H]3n1nnc2c(C(F)(F)F)cccc21 (single isomer, unassigned) [Example 9-1] | 20 | 2.2 | 800 | 4 | – | –
Nc1ncnc2c1ncn2[C@@H]1O[C@@H]2COP(=O)(O)O[C@@H]3[C@H](O)[C@@H](COP(=O)(O)O[C@H]2[C@H]1O)O[C@H]3n1nnc2c(N)cccc21 [Example 21, (1R,6R,8R,9R,10S,15R,17R,18R)-17-(4-amino-1H-1,2,3-benzotriazol-1-yl)-8-(6-amino-9H-purin-9-yl)-3,9,12,18-tetrahydroxy-2,4,7,11,13,16-hexaoxa-3λ^5,12λ^5-diphosphatricyclo[13.2.1.0^6,10]octadecane-3,12-dione] | 1700 | – | – | – | > 100 | > 100000
C=C1[C@H]2OP(=O)(S)OC[C@H]3O[C@@H](n4cnc5c(N)ncnc54)[C@H](F)[C@@H]3OP(=O)(S)OC[C@H]1O[C@H]2n1nnc2c(C(N)=O)cccc21 (single isomer, unassigned) [Example 22-2] | 70 | 10 | 3200 | 10 | – | –
NC(=O)c1cccc2c1nnn2[C@@H]1O[C@@H]2COP(=O)(O)O[C@H]3[C@@H](F)[C@H](n4cnc5c(N)ncnc54)O[C@@H]3COP(=O)(O)O[C@@H]1[C@@H]2O [Example 1, 1-[(1R,6R,8R,9R,10R,15R,17R,18R)-8-(6-amino-9H-purin-9-yl)-9-fluoro-3,12,18-trihydroxy-3,12-dioxo-2,4,7,11,13,16-hexaoxa-3λ^5,12λ^5-diphosphatricyclo[13.2.1.0^6,10]octadecan-17-yl]-1H-1,2,3-benzotriazole-4-carboxamide] | 10 | – | – | 3 | 3.2 | 1500
NC(=O)c1cccc2c1nnn2[C@@H]1O[C@@H]2COP(=O)(S)O[C@H]3[C@@H](F)[C@H](n4cnc5c(N)ncnc54)O[C@@H]3COP(=O)(S)O[C@@H]1[C@@H]2F (single isomer, unassigned) [Example 10-1] | 20 | 2.22 | 1330 | 5 | – | –
NC(=O)c1cccc2c1nnn2[C@@H]1O[C@@H]2COP(=O)(S)O[C@H]3[C@@H](F)[C@H](n4cnc5c(N)ncnc54)O[C@@H]3COP(=O)(S)O[C@@H]1[C@@H]2F (single isomer, unassigned) [Example 10-2] | 100 | 76.2 | 46500 | 10 | – | –
C=C1[C@H]2OP(=O)(S)OC[C@H]3O[C@@H](n4cnc5c(N)ncnc54)[C@H](F)[C@@H]3OP(=O)(S)OC[C@H]1O[C@H]2n1nnc2c(C(N)=O)cccc21 (single isomer, unassigned) [Example 22-1] | 10 | – | – | 10 | 5.1 | 2300
NC(=O)c1cccc2c1nnn2[C@@H]1O[C@@H]2COP(=O)(O)O[C@H]3[C@@H](F)[C@H](n4cnc5c(N)ncnc54)O[C@@H]3COP(=O)(S)O[C@@H]1[C@@H]2F (single isomer, unassigned) [Example 6-1] | 20 | 4.1 | 1400 | 10 | – | –
